Measured values: patent US7309494B2, “Peptides of the respiratory syncytial virus (RSV) G protein and their use in a vaccine” (Pierre Fabre Medicament, priority 2001, dated 2007)
Entries after “also recorded” stand apart in the source; their conditions may differ.

B1: ovalbumin (protein, UniProt P01012 2-386, looked up)
Ovalbumin: GSIGAASMEFCFDVFKELKVHHANENIFYCPIAIMSALAMVYLGAKDSTRTQINKVVRFDKLPGFGDSIEAQCGTSVNVHSSLRDILNQITKPNDVYSFSLASRLYAEERYPILPEYLQCVKELYRGGLEPINFQTAADQARELINSWVESQTNGIIRNVLQPSSVDSQTAMVLVNAIVFKGLWEKAFKDEDTQAMPFRVTEQESKPVQMMYQIGLFRVASMASEKMKILELPFASGTMSMLVLLPDEVSGLEQLESIINFEKLTEWTSSNVMEERKIKVYLPRMKMEEKYNLTSVLMAMGITDVFSSSANLSGISSAESLKISQAVHAAHAEINEAGREVVGSAEAGVDAASVSEEFRADHPFLFCIKHIATNAVLFFGRCVSP
notes: positive experimental control consisting of ovalbumin at 200 μg

How the values were obtained:
RSV-A [1] = assay: Anti-RSV-A antibody titer before and after immunization in naive mice; assay type: in vivo, Balb/c mice
Protocol: (§1) In order to test the immunogenicity of the G23a and G20a peptides, Balb/c mice were immunized with 6 or 1.5 μg of G2Na equivalent twice, on D0 and D14, intramuscularly.
(§2) Some mice were sensitized with RSV 20 days before the first immunization in order to make them seropositive with respect to RSV. A sample was taken from the mice before each immunization and the anti-G2Na, RSV-A and RSV-B antibody titers were determined.

RSV-B = assay: Anti-RSV-B antibody titer before and after immunization in naive mice; assay type: in vivo; conditions: naive Balb/c mice, 6 or 1.5 μg G2Na equivalent i.m. on D0 and D14; after first immunization
Protocol: as §1, §2

RSV-A [2] = assay: Protection against an RSV-A challenge in immunized mice (viral titer 5 days after challenge); assay type: in vivo, Balb/c mice; conditions: naive mice
Protocol: as §1
Ten days after the final immunization, the mice were challenged with 10^5 pfu/50 μl of RSV-A. The viral titer was measured 5 days after the challenge.

[3] = Determination of the IHS (immediate hypersensitivity) in guinea pigs; assay type: in vivo; conditions: for death of the guinea pigs (dead/tested): i.m. D0 and D8 with 20% adjuphos, i.v. booster D21
Protocol: Guinea pigs are immunized on D0 and D8 with the various molecules adjuvented with 20% (v/v) adjuphos, given i.m. On D21, a booster is given with the various molecules, nonadjuvented, by i.v. The death of the guinea pigs is then evaluated.
A positive experimental control consisting of ovalbumin at 200 μg is included for each molecule tested (cf. table 3 below).

| Molecule | anti-RSV-A antibody response (RSV-A [1]; naive Balb/c mice, 6 or 1.5 μg G2Na equivalent i.m. on D0 and D14, after first immunization) | immunogenicity in naive mice (summary) (RSV-A [1]; naive mice) | anti-RSV-B antibody response (RSV-B) | protection of the pulmonary tract subsequent to challenge with RSV-A (RSV-A [2]; challenge 10^5 pfu/50 μl RSV-A ten days after final immunization) | immunogenicity and protection compared with BBG2Na (RSV-A [2]) | death of the guinea pigs (dead/tested) ([3]; 4 mg) | death of the guinea pigs (dead/tested) ([3]; 40 mg) | induction of IHS ([3]; guinea pigs, 6 animals tested) | death of the guinea pigs (dead/tested) ([3]; positive control T+, ovalbumin at 200 μg) |
| --- | --- | --- | --- | --- | --- | --- | --- | --- | --- |
| G20a: fragment of the G protein of RSV-A (140-190)-(144-158) of 69 amino acids, SEQ ID No.1 | develop anti-RSV-A and RSV-B antibody responses from the first immunization | immunogenic | develop anti-RSV-A and RSV-B antibody responses from the first immunization | induces protection of the pulmonary tract; also recorded: protective | comparable to those observed with BBG2Na | 0/6 | 0/6 | does not induce any IHS in 6/6 animals tested | – |
| B1 | – | – | – | – | – | – | – | – | 5/6 |
